Test [1] has as its target T1, Parkin (Homo sapiens (Human), UniProt O60260). Put plainly: In vitro ubiquitylation assay with isolated mitochondria. Format: biochemical. Conditions: mitochondria from CCCP-treated HeLa cells lacking Parkin, vs DMSO. The method, then:
(§1) FIGS. 15A-15H show Parkin activation in primary fibroblasts, neuronal cells and in vitro. Positive control (PC) cells were treated with DMSO and 10 μM of CCCP. Negative control (NC) cells were treated with 3.5 μM CCCP, some cells were left untreated (−). […] Vinculin was used as loading control. […] FIG. 15C: Human fibroblasts were directly converted to neurons and treated as in FIG. 15B. […] Beta III tubulin confirmed successful conversion of fibroblasts to iNeurons. FIG. 15D: Rat PC12 cells were treated as in FIG. 15A. Western blots show enhanced ubiquitylation of MFN2 and TOM70, and robust pSer65-Ub induction similar to PC, but not NC cells. FIG. 15E: In vitro E2 discharge assay. Recombinant Parkin was pre-incubated with compound 4 or DMSO as control and was mixed to Ub-loaded UbcH7. […] Control reactions were performed without PINK1 or Parkin. FIG. 15F: In vitro assay with isolated mitochondria from untreated or CCCP-treated HeLa cells lacking Parkin. Mitochondrial preparations were mixed with recombinant Parkin, E1, UbcH7, ATP and either compound 4 or DMSO as a control and incubated for the indicated times. […] Control samples were incubated in reaction mix without Parkin. […]
The in vitro assays with mitochondrial preparations were performed as follows. […] The mitochondrial pellet was resuspended in solution B and the protein concentration determined by BCA. […]

The target of test [2] is T1, Parkin. Description: In vitro E2 discharge assay. Conditions: Ub-loaded UbcH7, presence of PINK1, vs DMSO. Format: biochemical. The method, then:
as §1
As the first readout for Parkin activity, E2 Ub discharge assays were performed, complementary to the Ub-charging assays of Parkin C431S in cells. […]

The next test concerns HeLa mtKeima cells. Description: Mitophagy assay (mtKeima HCI). In kind it is cell-based, human. Conditions: 5 μM, low-dose CCCP. The method, then:
HCI in 384-well plates was used to calculate the ratio of acidic to neutral mtKeima. Upon treatment with 10 μM CCCP, there was significant increase of the mtKeima ratio. Pre-treatment with compound 4 (dashed line, here shown 5 μM of compound 4) induced this also at low-dose CCCP concentrations while low dose CCCP alone (solid line) had only little effect on the ratio of acidic to neutral mtKeima.
HeLa mtKeima cells were pre-treated for 2 h with 12 different doses of Compounds 1, 2, 3, 4, and 31 before low-dose CCCP was added (3 μM final concentration). 10 μM CCCP was added to positive control wells. Cells were imaged live after 4 h and 8 h of CCCP. Values were normalized to the positive and negative (3 μM CCCP) control values for each time point. Curve fitting was used to calculate EC50 values.
To confirm mitophagy, HeLa cells expressing the pH-sensitive, mitochondria-targeted reporter mitoKeima46 were employed. A characteristic shift in the excitation wavelength of mitoKeima upon lysosomal fusion was used to determine mitochondrial turnover using […]. For mitoKeima experiments (Kim et al., Mol. Neurodegen. (2016) 11:55), cells were seeded in DMEM media lacking phenol red […]. Hoechst counterstain was added as a 5× stock in 5 μL volume. […] Segmentation of cells was performed as above and for each region of interest the ratio of acidic and neutral mitoKeima was calculated. […]

SMILES strings stand for the structures.

T1 sequence (O60260 whole entry): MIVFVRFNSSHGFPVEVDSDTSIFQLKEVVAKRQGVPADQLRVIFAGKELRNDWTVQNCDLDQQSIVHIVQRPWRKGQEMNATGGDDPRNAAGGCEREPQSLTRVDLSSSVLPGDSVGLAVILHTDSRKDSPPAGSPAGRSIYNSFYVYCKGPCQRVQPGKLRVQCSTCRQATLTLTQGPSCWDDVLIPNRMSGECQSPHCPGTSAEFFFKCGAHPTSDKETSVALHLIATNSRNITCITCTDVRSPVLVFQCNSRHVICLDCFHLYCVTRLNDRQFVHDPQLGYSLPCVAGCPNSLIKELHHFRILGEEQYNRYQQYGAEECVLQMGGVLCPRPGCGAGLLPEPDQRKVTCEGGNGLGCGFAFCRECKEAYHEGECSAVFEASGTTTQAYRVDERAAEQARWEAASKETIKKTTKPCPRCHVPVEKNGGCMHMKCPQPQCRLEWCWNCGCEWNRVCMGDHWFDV

For `O=C(Cn1ccnc1-c1ccccn1)Nc1ccc(-c2ccccc2)cc1` [Compound 4], the MFN1 ubiquitylation entry on Parkin [1] is reported as “increased ubiquitylation”. For the same molecule, the E2 discharge entry at Parkin [2] is recorded as “slightly more E2 discharge”. The “mitophagy flux (ratio of acidic to neutral mtKeima)” value with HeLa mtKeima cells is recorded as “enhanced mitophagy flux”.

The record behind these values is US11401255B2, “Small molecule activators of Parkin enzyme function” (Mayo Foundation for Medical Education and Research, priority 2016, dated 2022).
